Measured values taken from ChEMBL document CHEMBL1201862, “PubChem BioAssay data set” (2004).
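Protocol summary: plate cells (96-well), add compound at 5 concentrations, incubate 48 h, interpolate endpoints linearly. GI50: concentration for 50% inhibition of growth.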 Activity calls are given as the source filed them. Rule as the data show it: active = GI50 up to about 1.1 µM and inactive = higher.

Columns and labels:
BT-549 = experiment: NCI anticancer screen, dose series, 48 h
MDA-N = experiment: NCI anticancer screen, dose series, 48 h

Compound | GI50 (BT-549) | GI50 (MDA-N)
COc1cccc(-c2cc(O)c3cc(N4CCN(C)CC4)ccc3n2)c1 | 4.46 µM (inactive) | 0.265 µM (active)
Cc1cc2c(cc1C)NC1=C(O)C(c3c[nH]c4ccc(COc5ccccc5)cc34)OC1=N2 (configuration not stated) | > 100 µM (inactive) | > 100 µM (inactive)
CC12CCC3c4ccc(O)cc4CCC3C1C/C(=N\O)C2O (configuration not stated) | > 100 µM (inactive) | > 100 µM (inactive)
Cn1c(=S)c2nc(SCc3cccnc3)[nH]c2n(C)c1=O | > 100 µM (inactive) | > 100 µM (inactive)
O=C(COC(=O)c1ccccc1)c1ccc(Br)cc1 | 6.14 µM (inactive) | 4.71 µM (inactive)
N#Cc1c(NCCc2ccc(F)cc2)c2ccccc2n2c1nc1ccccc12 | 21.2 µM (inactive) | 21.3 µM (inactive)
CC(=O)Oc1cccc2c1C(=O)CCCC2 | > 100 µM (inactive) | –
COc1ccc(S(=O)(=O)c2nnc(S(=O)(=O)Cc3ccccc3)s2)cc1 | 27 µM (inactive) | –
Oc1ccc(Cl)cc1C1=NC(/N=C\c2ccccc2)=NC(c2ccccc2)C1 (configuration not stated) | > 100 µM (inactive) | –
O=C1/C(=C/c2cccc([N+](=O)[O-])c2)N=C(c2ccccc2)N1c1nc2c(Cl)cc(Cl)cc2s1 | 30.5 µM (inactive) | 18.4 µM (inactive)
CCOC(=O)N1c2ccccc2N(C(=O)OCC)C1CC(=O)/C=C/c1ccccc1 | 2.89 µM (inactive) | 3.57 µM (inactive)
c1ccc2c(c1)c1c(n2CCOCCN2CCOCC2)CCCC1 | – | 37.8 µM (inactive)
COC(=O)c1ccccc1CC(Cc1ccccc1)C(=O)OC (configuration not stated) | > 100 µM (inactive) | –
CC1=NN(C(=O)CSc2nc3ccc(I)cc3c(=O)n2Cc2ccccc2)C(=O)C1 | – | 31.2 µM (inactive)
O=C(O)c1cccc2c1/C(=N/Nc1ccccc1)CC2 | – | > 100 µM (inactive)
COC1(OC)c2no[n+]([O-])c2CCC1O (configuration not stated) | – | > 100 µM (inactive)
NCCCN(CCCN(C(=O)Nc1ccccc1)c1ccccc1)C(=O)Nc1ccccc1 | 31 µM (inactive) | 40.5 µM (inactive)

Compound | GI50 (BT-549) | GI50 (MDA-N)
CN(C)c1ccc(/C=C/C(=O)CC(=O)/C=C/c2ccc(N(C)C)cc2)cc1 | – | 83.2 µM (inactive)
Nc1nc(Cl)cc(NCC2(CO)CCC(Cc3ccccc3)C2)n1 (configuration not stated) | 16.2 µM (inactive) | 23.1 µM (inactive)
C#CC1(O)CCCCCCCCC2(CCCCCCCC1)OCCO2 | – | 20.9 µM (inactive)
NCCCN(CCCCN(CCCN)Cc1ccc2ccccc2c1)Cc1ccc2ccccc2c1 | 2.23 µM (inactive) | 1.88 µM (inactive)
O=C1NN=C2C=C(c3ccc(Cl)cc3)CC(c3cccc(Br)c3)C12 (configuration not stated) | > 100 µM (inactive) | > 100 µM (inactive)
CCOc1ccc(NC(=S)N/C=C(/C(C)=O)C(=O)Nc2ccccc2C)cc1 | > 100 µM (inactive) | > 100 µM (inactive)
O=c1oc2ccc([N+](=O)[O-])cc2c(Nc2ccc3c(c2)Oc2ccccc2O3)c1[N+](=O)[O-] | 30.4 µM (inactive) | 36.2 µM (inactive)
CC1=NN(c2cccc(Cl)c2)C2(SCC(=O)N2c2nc3ccccc3s2)C1=CC=Cc1ccccc1 (configuration not stated) | – | 34.1 µM (inactive)
CCOC(=O)c1cc(C2CCN(Cc3ccccc3)C2=O)c(C(=O)C(=[N+]=[N-])C(C)=O)[nH]1 (configuration not stated) | > 100 µM (inactive) | –
CC1(C)OC2OC(C(COS(=O)(=O)C(F)(F)F)N=[N+]=[N-])C(OC(=O)c3ccccc3)C2O1 (configuration not stated) | > 100 µM (inactive) | > 100 µM (inactive)
Cc1cc2c(cc1-c1cc3c(cc1C)C(C(C)C)=C(O)C(=O)/C3=C\Nc1nc(-c3ccccc3)cs1)/C(=C/Nc1nc(-c3ccccc3)cs1)C(=O)C(O)=C2C(C)C | 23.8 µM (inactive) | 41.1 µM (inactive)
CCCCCCCC(CC(=O)NC(CO)C(=O)NC(CO)CC(C)C)OC(=O)CC(CCCCCCC)OC(=O)CC(CCCCCCC)OC1OC(C)C(O)C(OC2OC(C)C(OC(C)=O)C(O)C2O)C1O (configuration not stated) | 6.17 µM (inactive) | 3.4 µM (inactive)
CCCCCC(C(O)C#N)C(O)(C(F)(F)F)C(F)(F)F (configuration not stated) | > 10 µM (inactive) | > 10 µM (inactive)
CC1(C)C(=S)C(C)(C)C1=S | – | > 100 µM (inactive)
CN1CCN(c2ccc3nc(C4=C(O)C(=O)[C@@H]5C(=C4O)N=C(CO)N5C)[nH]c3n2)CC1 | > 100 µM (inactive) | –
Cc1cc(-c2nc3c(F)cccc3s2)ccc1N | 66.1 µM (inactive) | 70.1 µM (inactive)
